Source: patent US11583528B2, “FFA1 (GPR40) as a therapeutic target for neural angiogenesis diseases or disorders” (Children's Medical Center Corporation, priority 2016, dated 2023)
“Also recorded” adds a separate entry of the source.

Columns and labels:
[1] = test system: pancreatic β-cell; conditions: by reducing β-cell overload; cited from earlier work
[2] = test system: retinas; assay: Oxygen consumption rate of ex vivo retinas (Seahorse XFe96); assay type: cell-based, mouse; conditions: WT retinal explants with palmitate, etomoxir 40 μM
Procedure: (§1) All oxygen consumption rates were measured using a Seahorse XFe96 Flux Analyzer®. Whole retinas were isolated and 1 mm punch biopsies were loaded into the 96 well plate. Retinal punches were incubated in assay media (DMEM 5030 media supplemented with 12 mM glucose, 10 mM HEPES and 26 mM NaHCO3) to measure oxygen consumption rates (OCR) and extracellular acidification rates (ECAR). Photoreceptor (661W) cells, were incubated in their assay media (DMEM 5030, 12 mM glucose, 10 mM HEPES) one hour prior to measurements. Fatty acid oxidation rates were determined by treating tissues or cells with Etomoxir (40 μM; Sigma) 40 min prior to analysis and then providing BSA (control) or BSA/Palmitate conjugate (Seahorse). Glucose oxidation rates were measured after injection of 2-deoxyglucose (2-DG, 100 mM; Sigma) or media control during data acquisition. To determine the maximal fatty acid or glucose oxidative capacity, the nonmitochondrial respiration (rate after injection of 2 μM Rotenone and 2 μM Antimycin A) was subtracted from the oxygen consumption rate after injection of 0.5 μM carbonyl cyanide-ptrifluoromethoxyphenylhydrazone (FCCP).

[3] = test system: photoreceptors (661W); assay: Oxygen consumption and extracellular acidification rates of photoreceptor (661W) cells (Seahorse XFe96); assay type: cell-based
Procedure: as §1

[4] = test system: Glut1; assay: Retinal Glut1 expression after in vivo treatment (qRT-PCR / Western blot); set-up: species or system mouse; conditions: versus control
From the text: All studies adhered to the NIH guide for the Care and Use of laboratory animals, the Association for Research in Vision and Ophthalmology (ARVO) Statement for the Use of Animals in Ophthalmic and Vision Research and were approved by the Institutional Animal Care and Use Committee at Boston Children's Hospital. Vldlr knockout mice (Vldlr^−/−; Jackson Lab Stock: 002529) were crossed with wild type C57Bl/6 mice to obtain heterozygous breeders for littermate controlled experiments. Vldlr^−/− mice were also crossed with Ffar1 knockout mice (Ffar1^−/−)^1 to ultimately obtain Vldlr^−/−/Ffar1^−/+ heterozygous breeders and double knockout mice (Vldlr^−/−/Ffar1^−/−). […] Littermate Vldlr^−/− pups were treated from P8 to P15 with WY164363 (50 mg/kg once daily, intraperitoneal; Sigma), GW9508 (14 μM, once daily intraperitoneal; Cayman), TAK-875 (15 mg/kg twice daily, gavage; Selleckchem), medium chain triglyceride oil (MCT, 20 μL once daily gavage; Nestle) or corresponding vehicle and sacrificed at P16 to quantify retinal vascular lesions. […]
Retinal samples were obtained as described above. […] Densitometry was analyzed using ImageJ. Retinal Vegfa concentration was measured by ELISA (as per manual, MMV00, R&D Systems) and normalized by doing a Bradford to measure the total cell protein content of each samples.

[5] = test system: Hif1α; assay: Retinal Hif1α stabilization after in vivo treatment (Western blot); set-up: species or system mouse
Procedure: (§2) Retinal samples were obtained as described above. Retinal lysate (20 μg) from three different animals or endothelial cells lysate (10 μg) were loaded on an SDS-PAGE gel and electroblotted onto a PVDF membrane. After blocking, the membranes were incubated with antibodies against β-Actin (Sigma, A1978), Hif1α (Novus, NB100-134), and Glut1 (Novus, NB300-666 and Abcam, Ab652) overnight (1:1000 each). After washing, membranes were incubated with 1:10,000 horseradish peroxidase-conjugated anti-rabbit or anti-mouse secondary antibodies (Amersham, NA931V and NA934V) for one hour at room temperature. Densitometry was analyzed using ImageJ. Retinal Vegfa concentration was measured by ELISA (as per manual, MMV00, R&D Systems) and normalized by doing a Bradford to measure the total cell protein content of each samples.

[6] = test system: Vldlr−/− mice; assay: Quantification of RAP-like retinal vascular lesions in Vldlr−/− mice; assay type: in vivo, mouse; conditions: Vldlr−/− pups treated from P8 to P15, lesions quantified at P16, versus vehicle control
From the text: All studies adhered to the NIH guide for the Care and Use of laboratory animals, the Association for Research in Vision and Ophthalmology (ARVO) Statement for the Use of Animals in Ophthalmic and Vision Research and were approved by the Institutional Animal Care and Use Committee at Boston Children's Hospital. Vldlr knockout mice (Vldlr^−/−; Jackson Lab Stock: 002529) were crossed with wild type C57Bl/6 mice to obtain heterozygous breeders for littermate controlled experiments. Vldlr^−/− mice were also crossed with Ffar1 knockout mice (Ffar1^−/−)^1 to ultimately obtain Vldlr^−/−/Ffar1^−/+ heterozygous breeders and double knockout mice (Vldlr^−/−/Ffar1^−/−). Pups weighing less than 5 grams or more than 7 grams at postnatal day (P)16 were excluded (Stahl, A., et al. Am J Pathol 177, 2715-2723 (2010)). Littermate Vldlr^−/− pups were treated from P8 to P15 with WY164363 (50 mg/kg once daily, intraperitoneal; Sigma), GW9508 (14 μM, once daily intraperitoneal; Cayman), TAK-875 (15 mg/kg twice daily, gavage; Selleckchem), medium chain triglyceride oil (MCT, 20 μL once daily gavage; Nestle) or corresponding vehicle and sacrificed at P16 to quantify retinal vascular lesions. Mice pups of both genders were used.
For quantification of outer retina vascular lesions, reminiscent of retinal angiomatous proliferation (RAP) or macular telangiectasia (MacTel), mice were euthanized with a mixture of xylazine and ketamine and eyes were enucleated and fixed in 4% paraformaldehyde for 1 h at room temperature. […] For quantification of retinal lesions 20 images of each whole-mounted retina were obtained at 10× magnification on a Zeiss AxioObserver.Z1 microscope and merged to form one image using AxioVision 4.6.3.0 software. Vascular lesion counts were analyzed using the SWIFT_MACTEL method, an adaptation of the method used to measure neovascularization (SWIFT_NV) (Stahl, A., et al. Angiogenesis 12, 297-301 (2009) in the oxygen induced retinopathy model. […]

[7] = test system: Glut1; assay: Glut1 expression in photoreceptor (661W) cells; assay type: cell-based; conditions: 661W photoreceptors
Procedure: RNA samples from cell culture, whole retina or laser-captured neovessels and layers were treated with DNase I (Qiagen, Chatsworth, Calif.) to remove any contaminating genomic DNA. The DNase-treated RNA was then converted into cDNA using reverse transcriptase (Invitrogen). PCR primers for target genes and the control gene, cyclophilin A, were designed using Primer Bank and NCBI Primer Blast software. Quantitative analysis of gene expression was generated using an ABI Prism 7700 Sequence Detection System with the SYBR Green Master mix kit and gene expression was calculated relative to cyclophilin A using the ΔcT method.
Cone photoreceptor cells (al-Ubaidi, M. R., J Cell Biol 119, 1681-1687 (1992), and Tan, E., et al. Invest Ophthalmol Vis Sci 45, 764-768 (2004)) (661W; from Dr. Al-Ubaidi) were cultured as monolayers at 37° C., 5% CO2 in a humidified atmosphere in DMEM with FBS 10% supplemented with hydrocortisone (20 μg/500 mL, H-2270, Sigma), Progesterone (20 μg/500 mL, P-8783, Sigma), Putrescine (0.016 g/500 mL, P-7505, Sigma) and β-mercaptoethanol (20 μL/500 mL, M-6250, Sigma). […] Photoreceptors were then collected 8 hours post-treatment for Hif1α protein expression (see Western blot); while their medium was collected at 12 hours for Vegfa quantification by ELISA (as per manual, MMV00, R&D Systems). […]

[8] = test system: photoreceptors (661W); assay: Glucose uptake of photoreceptor (661W) cells; assay type: cell-based; conditions: 661W photoreceptors
Procedure: Whole retinas and photoreceptors (661W) were incubated in assay media (DMEM 5030, 12 mM glucose, 10 mM HEPES) for 6 and 48 hours respectively. Media was collected, spun briefly (13 g) to remove cellular debris, and glucose and lactate levels measured using a Yellow Springs Instrument (YSI) 2950 were compared to control media that was not exposed to tissue or cells. To determine the conversion of glucose to lactate (the glycolytic rate), lactate production was divided by glucose uptake.

[9] = test system: Hif1α; assay: Hif1α protein in photoreceptor (661W) cells (Western blot); assay type: cell-based; conditions: 661W photoreceptors, 8 hours post-treatment
Procedure: as §2
Cone photoreceptor cells (al-Ubaidi, M. R., J Cell Biol 119, 1681-1687 (1992), and Tan, E., et al. Invest Ophthalmol Vis Sci 45, 764-768 (2004)) (661W; from Dr. Al-Ubaidi) were cultured as monolayers at 37° C., 5% CO2 in a humidified atmosphere in DMEM with FBS 10% supplemented with hydrocortisone (20 μg/500 mL, H-2270, Sigma), Progesterone (20 μg/500 mL, P-8783, Sigma), Putrescine (0.016 g/500 mL, P-7505, Sigma) and β-mercaptoethanol (20 μL/500 mL, M-6250, Sigma). Equal number of 661W cells (0.3×106) were plated in 6-well dishes and cultured to 80% confluence. […]

[10] = test system: WT and Vldlr−/− mice; assay: Retinal glucose uptake (3H-2-deoxyglucose tracer) in treated pups; assay type: in vivo, mouse; conditions: WT and Vldlr−/− retinas; GW9508 14 μM daily i.p. for 5 days (P7-P12)
Procedure: Positron emission tomography (PET) imaging studies were performed on WT, Vldlr^−/−/Ffar1^−/and Ffar1^−/− mice (P16; Focus 120 high-resolution, Siemens), followed by micro CAT imaging (MicroCAT II scanner, Siemens). Fluorine-18 fluorodeoxyglucose FDG) was administered by intraperitoneal injection (i.p.) to obtain nontoxic radioactivity levels (3.7 and 37 MBq; or 0.1 to 1.0 mCi). Actual administered activity was determined using a dose calibrator to measure activity in the syringe before and after the injection. Images were acquired 60 minutes after injection to ensure radiotracer uptake. Mice were fasted for 6 hours prior to imaging, kept in darkness and anesthetized by inhalation of isoflurane (2-4%) through a nose cone for the duration of the procedure. Animals were imaged in a head first, prone position, and placed on a heating pad to maintain appropriate body temperature. Upon completion of imaging, mice were euthanized and retinas were dissected for precise ^18F-FDG retinal activity, quantification by gamma counter, and corrected for decay. […] Retinas were collected and homogenized in a scintillation cocktail (Ecolite+, MP biomedicals) and betacounts measured using the LS6500 Multipurpose Scintillation Counter (Beckman).

## CCCCc1ccc(NS(=O)(=O)c2ccc(F)cc2)cc1 [DC260126, N-(4-Butylphenyl)-4-fluoro-benzenesulfonamide]
[1]
  pancreatic β-cell dysfunction: protect

## CCOC(=O)[C@@]1(CCCCCCOc2ccc(Cl)cc2)CO1 [Etomoxir]
[2]
  mitochondrial respiration (OCR) with FA oxidation inhibitor: abrogated
[3]; 661W photoreceptors with palmitate, etomoxir 40 μM
  effect on the increase in respiration (OCR): abrogated

## O=C(O)CCc1ccc(NCc2cccc(Oc3ccccc3)c2)cc1 [GW9508]
[4]; WT and Vldlr−/− retinas
  Glut1 expression in retina: reduces; also recorded: suppressed
[5]; Vldlr−/− retinas
  Hif1α stabilization in retina: stabilized
[5]; WT retinas
  Hif1α stabilization in retina: stabilized
[6]
  number of RAP-like pathologic vascular lesions: more than doubled
[7]
  Glut1 expression: suppression
[8]
  glucose uptake: decreased
[9]
  Hif1α stabilization: stabilized; also recorded: stabilization
[10]
  retinal glucose uptake (3H-2-DG tracer): suppressed; also recorded: reduction

## CCCCCCCN(CCc1ccc(SC(C)(C)C(=O)O)cc1)C(=O)Nc1ccc(F)cc1F [GW9578]
[3]; 661W photoreceptors, GW9578 100 nM, 48 hours
  extracellular acidification rate (ECAR), reflecting lactate production from glycolysis: without significantly affecting; also recorded: not detectably affected
[3]; 661W photoreceptors, palmitate, GW9578 100 nM, 48 hours
  mitochondrial respiration by FA β-oxidation (OCR): induced; also recorded: further increased

## COc1cccc(-c2cc(=O)c3ccccc3o2)c1N [PD98059]
[7]; PD98059, 20 μM, SP600125, Ffar1 siRNA
  effect on FFA1-mediated Glut1 suppression by GW9508: prevented

## Cc1cc(OCCCS(C)(=O)=O)cc(C)c1-c1cccc(COc2ccc3c(c2)OC[C@H]3CC(=O)O)c1 [TAK-875]
[4]; Vldlr−/− retinas only
  Glut1 expression in retina: increased Glut1 suppression
[6]
  number of RAP-like pathologic vascular lesions: significantly increased and more

## Cc1cccc(Nc2cc(Cl)nc(SCC(=O)O)n2)c1C [WY16463]
[6]
  number of RAP-like pathologic vascular lesions: reduced
